In patent publication US6241963A, “Dopamine and serotonin transporter ligands and imaging agents” (priority 1996, dated 2001):
Where “and” joins values, the source holds several entries; their conditions need not be identical. Equal entries are not always repeated. Entries after “also recorded” stand apart in the source; their conditions may differ.

What was measured:
dopamine transporters [1] = assay: SPECT imaging in a baboon, co-registered with MRI; format: in vivo; settings: 60-90 min post iv injection of 9 mCi
Procedure: A baboon (~15 kg) was the subject of a SPECT imaging study. Prior to imaging, the animal was fasted, immobilized with ketamine (10-20 mg/kg, i.m.) and xylazine (2-3 mg/kg, i.m.), intubated and maintained on a 1.5-2.0% isofluorane/98.5% oxygen mixture (flow rate of 200-500 cc/min). […] Body temperature was maintained using a hot water circulating heating pad and was monitored with a rectal thermometer. The animal's head was immobilized using a vacuum-packed bean-bag device that hardens upon evacuation when molded around the head. No-carrier-added [^99m Tc]TRODAT-1 (1.19a; 9 mCi) was administered as an intravenous bolus in the saphenous vein of the baboon. Immediately after injection, sequential 5 minute per frame dynamic SPECT scans were acquired on a triple-headed Picker Prism 3000 camera (FWHM: 7 mm) equipped with fan beam collimators for 2 hours. The acquisition parameters were a 20% energy window at 140 KeV, 120 projection angles over 360 degrees, a 128×128 matrix, and a zoom factor of 1.78 in a slice thickness of 2 mm. The projection data was reconstructed with a count dependent 3-D Wiener filter. Chang's first order correction method was used to compensate for attenuation. Magnetic resonance images (MRI) of the baboon brain were acquired with a 1.5 Tesla machine (GE Medical Systems, Milwaukee, Wis.). […]

dopamine transporter = assay: Blocking studies in rats (pretreatment or co-injection with competing agent); format: in vivo, Male Sprague-Dawley rats; settings: for ST/CB ratio after pretreatment with haldol (haloperidol) / ST/CB ratio after pretreatment with β-CIT (RTI-55): 60 min, pretreated 1 mg/kg iv, 5 min before tracer; for ST/CB ratio, control rats of blocking study: 60 min post-injection, no pretreatment
Procedure: (§1) Regional brain distribution in rats was obtained after an injection of 1.19a, 1.19b, 1.20a, 1.20b or 1.21. Samples from different brain regions (cortex, striatum, hippocampus, and cerebellum) were dissected, weighed and counted, and the percentage dose per gram of sample was calculated by comparing the sample counts with the count of the diluted initial dose. The uptake ratio of each region was obtained by dividing the percentage dose per gram of that region by that of the cerebellum. For blocking studies, rats were injected with either β-CIT or haloperidol (iv, 1 mg/Kg) 5 min prior to injection of 1.19a. The rats were dissected and brain tissue samples were counted as described above. The specific uptake of the compound was expressed as ratio of ST/CB (% dose/g of striatum divided by the same of cerebellum).
as §1, with “3.24 to 3.34.” for “1.19a, 1.19b, 1.20a, 1.20b or 1.21.”, “3.25.” for “1.19a.”, “above.” for “above. The specific uptake of the compound was expressed as ratio of ST/CB (% dose/g of striatum divided by the same of cerebellum).”

[2] = rat, cited from earlier work
dopamine transporters [3] = biological target: dopamine transporters (Rattus norvegicus, UniProt P23977); assay: In vitro autoradiography of rat brain sections; format: binding, Male Sprague-Dawley rats; settings: rat brain coronal sections
dopamine transporters (Rattus norvegicus, UniProt P23977), sequence (P23977 whole entry): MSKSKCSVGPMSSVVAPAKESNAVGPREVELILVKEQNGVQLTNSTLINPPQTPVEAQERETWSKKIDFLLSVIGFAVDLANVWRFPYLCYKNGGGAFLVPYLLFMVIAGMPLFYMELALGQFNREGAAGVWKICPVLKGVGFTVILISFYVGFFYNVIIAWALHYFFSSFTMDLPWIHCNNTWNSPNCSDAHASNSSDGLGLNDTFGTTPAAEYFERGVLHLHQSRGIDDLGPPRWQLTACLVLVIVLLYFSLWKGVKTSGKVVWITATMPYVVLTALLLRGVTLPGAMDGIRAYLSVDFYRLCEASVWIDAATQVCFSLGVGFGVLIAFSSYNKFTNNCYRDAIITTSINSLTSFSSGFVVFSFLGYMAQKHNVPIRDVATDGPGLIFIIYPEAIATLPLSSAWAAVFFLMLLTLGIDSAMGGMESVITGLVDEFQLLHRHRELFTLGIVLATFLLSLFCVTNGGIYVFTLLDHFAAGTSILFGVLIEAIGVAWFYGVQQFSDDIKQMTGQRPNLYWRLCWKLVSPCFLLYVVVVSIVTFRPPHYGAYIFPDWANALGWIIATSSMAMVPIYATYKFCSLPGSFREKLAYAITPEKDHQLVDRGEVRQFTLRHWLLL
Procedure: Male Sprague-Dawley rats ([…]) were sacrificed by decapitation, and the brains were removed, placed in OTC embedding medium (Miles Laboratory, Elkhart, Ind.) frozen in powdered dry ice. After equilibration to -15° C., 20 μm coronal sections were sliced on a cryostat (Hacker Instruments, Fairfield, N.J.), thaw mounted onto gelatin-coated slides, desiccated at 4° C. for 3 hours and kept at -70° C. until use. Prior to the experiment, the slides were dried at room temperature and preincubated for 30 minutes in buffer containing 50 mM Tris-HCl (pH 7.4, 120 mM NaCl). The slides were then incubated for 2 hours in preincubation buffer and the [^99m Tc] compound 3.25 (385,000 cpm/200 μL) in a coplan jar, washed for 1 hour in cold Tris buffer, with one change of buffer, dipped in ice-cold water to remove buffer salts and allowed to dry at room temperature. Nonspecific binding was determined in the presence of 1 μM IPT. These slides were simultaneously exposed to DuPont x-ray film in an autoradiographic cassette for 18 hours. The exposed film was developed with a Kodak automatic film processor.

Compound	SPECT localization in brain (dopamine transporters [1])	ST/CB ratio after pretreatment with haldol (haloperidol) (dopamine transporter)	ST/CB ratio after pretreatment with β-CIT (RTI-55) (dopamine transporter)	ST/CB ratio, control rats of blocking study (dopamine transporter)	Initial brain uptake at 2 minutes ([2]; 2 min post iv injection (Meegalla 1995)) [%]	ST/CB ratio at 60 minutes ([2]; 60 min after iv injection (Meegalla 1995))	Autoradiographic regional labeling (dopamine transporters [3])
CN1[C@H]2CC[C@@H]1[C@@H](C[N+]13CC[S][99Tc-]14(=[O])[S]CC[N]4CC3)[C@@H](c1ccc(Cl)cc1)C2 (stereo partly shown) [Compound 1.19a]	excellent consistence with the expected localization of this agent in caudate and putamen areas; also recorded: A high accumulation	2.6	1.0	2.66 and 2.6			
COC(=O)C1C(c2ccc(Cl)cc2)CC2CCC1N2CC[S][99Tc-]12(=[O])[S]CC[N+]1(C)CC[S]2 [Compound 3.25, [^99m Tc] technetium, [methyl 3-(4-chlorophenyl)-8-(2-mercaptoethyl)-8-azabicyclo [3.2.1]octane-2-carboxylato-S][[2,2'-(methylimino)bis[ethanethiolato]](2-)-N,S,S']oxo]		2.6	1.0	2.6	0.1	3.50	elevated labeling in striatum, major islands of Calleja and olfactory tubercle regions; also recorded: intense labeling in caudate putamen and olfactory tubercle; also recorded: localized in caudate putamen and olfactory tubercle
